Results as given in EP3463364B1, “PYRAZINE DERIVATIVES FOR USE IN THE TREATMENT OF DISEASES ASSOCIATED WITH CELL CYCLE DYSREGULATION” (University of Patras, priority 2016, dated 2017).

What was measured:
Geminin = target: T1, Geminin (Homo sapiens, UniProt O75496); assay: Intracellular localization of exogenous Geminin-GFP in co-transfected MCF7 cells (fluorescence microscopy); type: cell-based; settings: 100µM, 24-hour incubation
T1 construct: the full length human Geminin ortholog was used; expressed in transfected cells; host or cells: MCF7
T1 sequence (O75496 1-209): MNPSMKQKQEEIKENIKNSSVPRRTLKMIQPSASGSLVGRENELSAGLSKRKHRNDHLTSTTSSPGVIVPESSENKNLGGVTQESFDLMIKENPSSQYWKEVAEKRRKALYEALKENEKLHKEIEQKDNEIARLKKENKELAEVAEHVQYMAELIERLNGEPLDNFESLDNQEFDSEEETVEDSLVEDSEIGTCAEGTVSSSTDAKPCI
Excerpt: A cellular assay was developed and applied using epithelial cells of breast adenocarcinoma (MCF7), for the purpose of the ex vivo study of the mechanism by which the inhibitory effect of the synthetic chemical compound affects the functional significance of the Geminin-Cdtl protein interaction.
Therefore, in order to determine the mechanism of action of the synthetic chemical compound AF-615/30368009, its effect on the Geminin nucleo-cytoplasmic translocation was studied ex vivo.
For the purposes of this experiment, the full length human Geminin ortholog was used as well as the protein Cdt1^DEL which corresponds to the human ortholog which lacks the amino acid residues 170-190. […]
For the implementation of the cellular assay, an appropriate number of cells were seeded onto glass coverslips and cells were allowed to culture in order to adhere. […] Then, the coverslips were washed with 1x PBS buffer (2 times), mounted on microscope slides using mounting medium containing the dye DAPI (that stains only nuclei) and were observed under a fluorescence microscope. […]
The experimental design included the transient co-transfection of MCF7 cancer cells with Geminin-GFP & dhcRed and Geminin-GFP & Cdt1^DEL-dhcRed. […] The intracellular localization of Geminin was detected by the autofluorescence of the GFP molecule. […]

[1] = target: T2, Geminin-miniCdt1 protein interaction (Homo sapiens, UniProt O75496+Q9H211); assay: Surface plasmon resonance (SPR): inhibition of Geminin binding to immobilized miniCdt1
T2 construct: corresponds to the amino acid region 158-396 of the human Cdtl protein; Concentrations series of the full-length Geminin and the synthetic chemical compound were simultaneously injected
T2 sequence (Q9H211 158-396): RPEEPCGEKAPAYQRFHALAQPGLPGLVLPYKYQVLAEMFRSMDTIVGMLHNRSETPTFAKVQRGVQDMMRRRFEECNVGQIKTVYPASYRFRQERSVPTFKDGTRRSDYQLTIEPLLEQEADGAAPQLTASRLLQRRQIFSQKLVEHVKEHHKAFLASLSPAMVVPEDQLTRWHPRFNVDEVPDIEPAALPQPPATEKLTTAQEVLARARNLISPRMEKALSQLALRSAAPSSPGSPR
T2 sequence (O75496 1-209): T1 sequence (O75496 1-209)
Protocol: Surface plasmon resonance analysis was performed in order to determine in a quantitative manner the ability of the synthetic compound AF-615/30368009 (compound number 1 in Tables A and B, and Fig. 1) to inhibit the binding of Geminin to the protein miniCdt1 (which corresponds to the amino acid region 158-396 of the human Cdtl protein), by calculating the inhibition constant (KI).
Surface plasmon resonance spectroscopy (SPR) was performed at 25°C, using a Biosensor Biacore instrument (Biacore T100). About 6,000 RU of miniCdt1 protein were immobilized on a CMS Chip (Biacore) at pH 5.5, using amino coupling of Lysine residues. Concentrations series of the full-length Geminin and the synthetic chemical compound were simultaneously injected across the chip in a buffer containing 20 mM Hepes pH 7.5, 200 mM NaCl, 0.01% Tween 20 at a flow rate of 30µl/min. The concentrations used were 12, 36, 107, 322, 966nM for Geminin and 10 µM, 100µM, 1000µM for the compound. The injection of samples was carried out in the presence of 20% DMSO, to ensure high solubility.
In the graphs of Fig. 2, the x axis represents the different concentrations of Geminin (nM), while the y-axis the binding levels in RU (Response Units). […] The results in Fig. 2 indicate the specificity of the in vitro inhibitory effect of the synthetic chemical compound AF-615/30368009 on the Geminin-miniCdt1 protein interaction.

O=C(NNC(=S)N1CCOCC1)c1cnccn1 [AF-615/30368009, N'-(morpholine-4-carbothioyl)pyrazine-2-carbohydrazide]
intracellular localization of Geminin (Geminin; MCF7, co-transfection with Geminin-GFP & Cdt1^DEL-dhcRed (Fig. 4)): no detectable change | percentage of cells with nuclear localization of Geminin (Geminin; MCF7, co-transfection with Geminin-GFP & dhcRed (Fig. 4)): statistically significant increase | Ki ([1]; SPR at 25°C, Geminin 12-966nM, compound 10-1000µM, 20% DMSO, estimated value, read-out: inhibition constant (KI)): 750 ± 190 µM | inhibition of Geminin binding to miniCdt1 ([1]; compound at 1000 µM, SPR binding curves (Fig. 2)): exhibits inhibition of Geminin binding to miniCdt1
